The values below come from ChEMBL document CHEMBL1154593, “Insights into the inhibition of xanthine oxidase by curcumin” (Bioorg Med Chem Lett, 2009).

This assay deals with Xanthine dehydrogenase/oxidase (Homo sapiens, UniProt P47989). The experiment in a line: Inhibition of xanthine oxidase.
Chain of Xanthine dehydrogenase/oxidase (P47989 whole entry): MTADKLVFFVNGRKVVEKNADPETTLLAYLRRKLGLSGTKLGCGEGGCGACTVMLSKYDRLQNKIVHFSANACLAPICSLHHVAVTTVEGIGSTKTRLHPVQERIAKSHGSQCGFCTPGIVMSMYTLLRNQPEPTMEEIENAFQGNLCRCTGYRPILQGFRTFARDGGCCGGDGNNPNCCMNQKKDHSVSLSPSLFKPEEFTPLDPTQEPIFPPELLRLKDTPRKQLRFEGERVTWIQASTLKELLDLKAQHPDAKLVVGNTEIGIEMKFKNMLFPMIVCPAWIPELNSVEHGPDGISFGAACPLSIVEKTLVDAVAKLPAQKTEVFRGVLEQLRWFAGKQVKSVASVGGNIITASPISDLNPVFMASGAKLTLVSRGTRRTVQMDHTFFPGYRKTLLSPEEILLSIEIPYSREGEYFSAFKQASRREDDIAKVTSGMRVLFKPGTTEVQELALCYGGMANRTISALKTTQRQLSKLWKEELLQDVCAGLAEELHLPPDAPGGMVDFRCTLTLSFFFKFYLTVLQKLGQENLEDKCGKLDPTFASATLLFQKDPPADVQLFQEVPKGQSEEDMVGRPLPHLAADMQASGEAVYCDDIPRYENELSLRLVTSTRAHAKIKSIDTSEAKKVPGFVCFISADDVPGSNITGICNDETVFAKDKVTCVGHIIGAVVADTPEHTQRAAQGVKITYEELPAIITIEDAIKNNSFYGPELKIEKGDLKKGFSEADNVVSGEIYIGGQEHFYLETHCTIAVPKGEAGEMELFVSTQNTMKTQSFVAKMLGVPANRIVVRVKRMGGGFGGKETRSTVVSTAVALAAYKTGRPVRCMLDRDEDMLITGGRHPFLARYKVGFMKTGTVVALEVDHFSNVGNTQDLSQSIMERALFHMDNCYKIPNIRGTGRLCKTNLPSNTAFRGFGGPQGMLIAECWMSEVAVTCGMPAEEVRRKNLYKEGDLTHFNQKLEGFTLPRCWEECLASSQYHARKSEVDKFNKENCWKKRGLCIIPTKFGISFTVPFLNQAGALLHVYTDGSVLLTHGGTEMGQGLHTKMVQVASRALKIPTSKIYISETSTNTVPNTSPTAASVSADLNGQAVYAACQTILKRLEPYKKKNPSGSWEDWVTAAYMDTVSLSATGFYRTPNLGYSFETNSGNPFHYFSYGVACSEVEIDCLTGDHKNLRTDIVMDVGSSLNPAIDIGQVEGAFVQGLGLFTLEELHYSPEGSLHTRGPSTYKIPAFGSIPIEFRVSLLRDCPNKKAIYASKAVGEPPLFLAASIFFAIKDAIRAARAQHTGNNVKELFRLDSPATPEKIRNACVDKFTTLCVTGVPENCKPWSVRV

Usually Ki stands for the dissociation constant of the complex between target and ligand, obtained from inhibition or displacement. Read a low Ki as tighter binding. Compound `COc1cc(/C=C/C=O)ccc1O` [CONIFERYL ALDEHYDE] displayed a Ki of 93.9 µM.
